Source: paper PMC8838532 (Molecules, 2022)
Where two headings read alike, the source gives them in different places. Values belong to the compound of their own block, whether it stands above or below them.

Key:
WSS-1 cells = assay: Resazurin cytotoxicity assay in WSS-1 cells; assay type: cell-based; details: WSS-1 healthy human cells, 48 h
Protocol: (§1) The A549 cell line (CCL-185™; ATCC, Manassas, VA, USA), from human lung carcinoma epithelium, and the K562 cell line (Rio de Janeiro Cell Bank, BCRJ: 0126, Rio de Janeiro, RJ, Brazil), a human chronic myeloid cell line expressing the BCR-ABL1 protein, were grown in RPMI-1640 culture medium (Merck, Darmstadt, Hesse, Germany) supplemented with 10% heat-inactivated fetal bovine serum (FBS; Vitrocell, Campinas, SP, Brazil). WSS-1 [WS-1] (ATCC CRL-2029™) human […] cells were grown in high-glucose DMEM (Vitrocell) supplemented with 10% FBS (Vitrocell). All cell lines were maintained at 37 °C under 5% CO2, in a water jacket CO2 incubator (Forma Series II incubator, Thermo Fisher Scientific, Waltham, MA, USA).
(§2) Briefly, cells were seeded in 96-well microplates (2 × 10^4 cells/well for K562 cells and 5 × 10^4 cells/well for A549 and WSS-1 cells) and incubated with 10 µM of the test compounds for 48 h at 37 °C. A resazurin (Merck, Darmstadt, Hesse, Germany) solution (final concentration: 0.01 mg/mL) was added to each well before the end of the experiment, at 1 h before concluding for K562 cells, and 2 h before concluding for A549 and WSS-1 cells. Fluorescence readings (λex = 560 nm, […]) were carried out immediately after the addition of resazurin (t0) and at the end of the experiment (tn) with a FlexStation 3 Benchtop multimode microplate reader (Molecular Devices, San Jose, CA, USA). Resorufin fluorescence was calculated by subtracting the fluorescence measured at t0 from that at tn. Cell viability was expressed as percentages, considering the mean resorufin fluorescence of the control wells (cells incubated with only DMSO) to be 100%. Tests were performed in triplicate. The same assay was carried out to generate 8–10 points concentration-response curves (300 µM top compound concentration).
(§3) IC50 values were calculated by a four-parameter logistic curve function, using GraphPad Prism version 6.01 for Windows (GraphPad Software, San Diego, CA, USA, www.graphpad.com) (accessed on 29 December 2021).

A549 cells [1] = assay: Resazurin cytotoxicity assay in A549 cells; assay type: cell-based, human; details: for fold more potent than imatinib / IC50: A549 cells; for fold more potent than imatinib: IC50 versus imatinib; for IC50: Homo sapiens, 48 h, resazurin, concentration-response curve; for SI WSS-1/A549: SI = IC50 (WSS-1)/IC50 (A549)
Protocol: as §1, §2, §3

K562 cells [2] = assay: Resazurin cytotoxicity assay in K562 cells; details: for viability at 10 µM: read-out: percentage of viability
A549 cells [3] = details: 150 μM, cited from earlier work; for % viability reduction A549 cells: Figure 1
K562 cells [4] = details: 150 μM, Figure 1; cited from earlier work
K562 cells [5] = tested on: K562 cells; parameters: method as in PMID 30055465; details: cited from earlier work
K562 cells [6] = details: Figure 1; cited from earlier work

melting point: 235 to 237 °C
Structure (SMILES): Cc1ccc2c(c1)C(=O)C(=O)N2Cc1cn(-c2ccc(C)c(Nc3nccc(-c4cccnc4)n3)c2)nn1 [2b, 5-methyl-1-((1-(4-methyl-3-((4-(pyridin-3-yl)pyrimidin-2-yl)amino)phenyl)-1H-1,2,3-triazol-4 yl)methyl)indoline-2,3-dione]

melting point: 257 to 260 °C
Structure (SMILES): Cc1ccc(-n2cc(CN3C(=O)C(=O)c4cc(Cl)ccc43)nn2)cc1Nc1nccc(-c2cccnc2)n1 [2c, 5-chloro-1-((1-(4-methyl-3-((4-(pyridin-3-yl)pyrimidin-2-yl)amino)phenyl)-1H-1,2,3-triazol-4 yl)methyl)indoline-2,3-dione]

melting point: 267 to 270 °C
Structure (SMILES): Cc1ccc(-n2cc(CN3C(=O)C(=O)c4cc(Br)ccc43)nn2)cc1Nc1nccc(-c2cccnc2)n1 [2d, 5-bromo-1-((1-(4-methyl-3-((4-(pyridin-3-yl)pyrimidin-2-yl)amino)phenyl)-1H-1,2,3-triazol-4 yl)methyl)indoline-2,3-dione]

melting point: 251 to 253 °C
Structure (SMILES): Cc1ccc(-n2cc(CN3C(=O)C(=O)c4cc(F)ccc43)nn2)cc1Nc1nccc(-c2cccnc2)n1 [2e, 5-fluoro-1-((1-(4-methyl-3-((4-(pyridin-3-yl)pyrimidin-2-yl)amino)phenyl)-1H-1,2,3-triazol-4 yl)methyl)indoline-2,3-dione]

melting point: 223 to 224 °C
Structure (SMILES): Cc1ccc(-n2cc(CN3C(=O)C(F)(F)c4cc(Cl)ccc43)nn2)cc1Nc1nccc(-c2cccnc2)n1 [3c, 5-chloro-3,3-difluoro-1-((1-(4-methyl-3-((4-(pyridin-3-yl)pyrimidin-2-yl)amino)phenyl)-1H-1,2,3-triazol-4-yl)methyl)indoline-2-one]
IC50 (WSS-1 cells): 13.5 µM
fold more potent than imatinib (A549 cells [1]): approximately 10 fold
IC50 (A549 cells [1]): 6.4 µM
SI WSS-1/A549 (A549 cells [1]): 2.1

melting point: 218 to 219 °C
Structure (SMILES): Cc1ccc(-n2cc(CN3C(=O)C(F)(F)c4cc(Br)ccc43)nn2)cc1Nc1nccc(-c2cccnc2)n1 [3d, 5-bromo-3.3-difluoro-1-((1-(4-methyl-3-((4-(pyridin-3-yl)pyrimidin-2-yl)amino)phenyl)-1H-1,2,3-triazol-4-yl)methyl)indoline-2-one]
IC50 (WSS-1 cells): 18.6 µM
fold more potent than imatinib (A549 cells [1]): approximately 10 fold
IC50 (A549 cells [1]): 7.3 µM
SI WSS-1/A549 (A549 cells [1]): 2.5

Structure (SMILES): Cc1ccc(NC(=O)c2ccc(CN3CCN(C)CC3)cc2)cc1Nc1nccc(-c2cccnc2)n1 [Imatinib, imatinib]
viability at 10 µM (K562 cells [2]; Homo sapiens, K562, 48 h): 30.7%
% viability reduction A549 cells (A549 cells [3]): 61.2%
% viability reduction K562 cells (K562 cells [4]): 61.7%

melting point: 237 to 239 °C
Structure (SMILES): Cc1ccc(-n2cc(CN3C(=O)C(=O)c4ccccc43)nn2)cc1Nc1nccc(-c2cccnc2)n1 [compound 2a, 1-((1-(4-methyl-3-((4-(pyridin-3-yl)pyrimidin-2-yl)amino)phenyl)-1H-1,2,3-triazol-4-yl)methyl)indoline-2,3-dione]

melting point: 222 °C
Structure (SMILES): Cc1ccc(-n2cc(CN3C(=O)C(F)(F)c4ccccc43)nn2)cc1Nc1nccc(-c2cccnc2)n1 [compound 3a, 3.3-difluoro-1-((1-(4-methyl-3-((4-(pyridin-3-yl)pyrimidin-2-yl)amino)phenyl)-1H-1,2,3-triazole-4-yl)methyl)indoline-2-one]
IC50 (WSS-1 cells): 11.6 µM
fold more potent than imatinib (A549 cells [1]): approximately 10 fold
IC50 (A549 cells [1]): 7.2 µM
SI WSS-1/A549 (A549 cells [1]): 1.6

melting point: 102 to 104 °C
Structure (SMILES): Cc1ccc2c(c1)C(F)(F)C(=O)N2Cc1cn(-c2ccc(C)c(Nc3nccc(-c4cccnc4)n3)c2)nn1 [compound 3b, 3,3-difluoro-5-methyl-1-((1-(4-methyl-3-((4-(pyridin-3-yl)pyrimidin-2-yl)amino)phenyl)-1H-1,2,3-triazol-4-yl)methyl)indolin-2-one]
IC50 (WSS-1 cells): 69.3 µM
IC50 (K562 cells [2]; Homo sapiens, K562, 48 h, read-out: IC50 K562): 35.8 µM
viability at 10 µM (K562 cells [2]; Homo sapiens, K562, 48 h): 57.5%
SI WSS-1/K562 (K562 cells [2]; SI = IC50 (WSS-1)/IC50 (K562)): 1.9

Structure (SMILES): COc1ccc(CN2C(=O)C(=O)c3cc(-c4ccc(OC)cc4)ccc32)cc1 [compound 4]
IC50 (K562 cells [5]): 0.03 µM

Structure (SMILES): Cc1ccc(-c2cn(-c3ccc(CN4CCN(C)CC4)c(C(F)(F)F)c3)nn2)cc1Nc1nccc(-c2cccnc2)n1 [compound 7]
IC50 (K562 cells [6]): 0.03 µM

Structure (SMILES): CC(=O)NCC(=O)Nc1ccc(C)c(Nc2nccc(-c3cccnc3)n2)c1 [compound 8]
% viability reduction A549 cells (A549 cells [3]): 61.5%
cell viability (A549 cells [3]): 38.5%
% viability reduction K562 cells (K562 cells [4]): 66.3%

Structure (SMILES): CCc1c2c(nc3ccc(OC(=O)N4CCC(N5CCCCC5)CC4)cc13)-c1cc3c(c(=O)n1C2)COC(=O)[C@]3(O)CC [irinotecan]
IC50 (K562 cells [5]): 0.07 µM
